Laboratory results taken from ChEMBL document CHEMBL1201862, “PubChem BioAssay data set” (2004).
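Values below derive from 48-hour exposures of cells grown in 96-well plates, with endpoints linearly interpolated between the two concentrations bracketing the appropriate inhibition level. GI50 marks 50% less growth.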 The source made the active and inactive calls. Rule as the data show it: active = GI50 up to about 1.1 µM and inactive = higher.

What was measured:
Assay in all cases: growth of human tumour cells (NCI), 48 h
OVCAR-8 = tested on: OVCAR-8
HT-29 = tested on: HT-29
EKVX = tested on: EKVX
HCT-116 = tested on: HCT-116
MDA-MB-435 = tested on: MDA-MB-435
A549 = tested on: A549
UACC-257 = tested on: UACC-257
MDA-MB-231 = tested on: MDA-MB-231
TK-10 = tested on: TK-10
NCI/ADR-RES = tested on: NCI/ADR-RES
ACHN = tested on: ACHN
BT-549 = tested on: BT-549
NCI-H460 = tested on: NCI-H460
PC-3 = tested on: PC-3
786-0 = tested on: 786-0
A498 = tested on: A498
UACC-62 = tested on: UACC-62
SF-539 = tested on: SF-539
RPMI-8226 = tested on: RPMI-8226
Malme-3M = tested on: Malme-3M

SMILES	GI50 (OVCAR-8)	GI50 (HT-29)	GI50 (EKVX)	GI50 (HCT-116)	GI50 (MDA-MB-435)	GI50 (A549)	GI50 (UACC-257)	GI50 (MDA-MB-231)	GI50 (TK-10)	GI50 (NCI/ADR-RES)	GI50 (ACHN)	GI50 (BT-549)	GI50 (NCI-H460)	GI50 (PC-3)	GI50 (786-0)	GI50 (A498)	GI50 (UACC-62)	GI50 (SF-539)	GI50 (RPMI-8226)	GI50 (Malme-3M)
CC(C)=CC(=O)OC1C2C(C)=CC(=O)C(O)C2(C)C2C3(O)OCC24C(CC(=O)OC14)C(C)C3O (stereo not given)	0.017 µM (active)	0.0104 µM (active)	0.0577 µM (active)	0.00519 µM (active)	0.003 µM (active)	0.152 µM (active)	0.0113 µM (active)	0.0168 µM (active)	0.0216 µM (active)	0.0724 µM (active)	0.022 µM (active)	0.00287 µM (active)	0.0294 µM (active)	0.00289 µM (active)	0.01 µM (active)	0.117 µM (active)	0.00925 µM (active)	0.00505 µM (active)	0.00755 µM (active)	–
Cc1[nH]n(-c2ccccc2)c(=O)c1C(N(CCc1ccccc1)C1=NCC(C)S1)(C(F)(F)F)C(F)(F)F (stereo not given)	–	17.8 µM (inactive)	11.3 µM (inactive)	10.1 µM (inactive)	10.2 µM (inactive)	15.1 µM (inactive)	16 µM (inactive)	18.8 µM (inactive)	16.3 µM (inactive)	18.9 µM (inactive)	16.2 µM (inactive)	10.4 µM (inactive)	13.9 µM (inactive)	16.1 µM (inactive)	13.9 µM (inactive)	11.9 µM (inactive)	8.71 µM (inactive)	16.7 µM (inactive)	–	11.1 µM (inactive)
O=C1NC(NCc2ccc(F)cc2)=N/C1=C\c1ccccc1Cl	14.4 µM (inactive)	15 µM (inactive)	19.8 µM (inactive)	14.5 µM (inactive)	17.9 µM (inactive)	17.2 µM (inactive)	24.9 µM (inactive)	17.8 µM (inactive)	21.5 µM (inactive)	20.1 µM (inactive)	20.7 µM (inactive)	23.7 µM (inactive)	25 µM (inactive)	15.9 µM (inactive)	11.2 µM (inactive)	16.8 µM (inactive)	15.7 µM (inactive)	32.1 µM (inactive)	–	16.8 µM (inactive)
CS(=O)(=O)Nc1ccc2ccccc2c1	> 100 µM (inactive)	> 100 µM (inactive)	57.3 µM (inactive)	> 100 µM (inactive)	> 100 µM (inactive)	> 100 µM (inactive)	> 100 µM (inactive)	> 100 µM (inactive)	> 100 µM (inactive)	> 100 µM (inactive)	> 100 µM (inactive)	30.4 µM (inactive)	> 100 µM (inactive)	> 100 µM (inactive)	> 100 µM (inactive)	> 100 µM (inactive)	> 100 µM (inactive)	> 100 µM (inactive)	> 100 µM (inactive)	> 100 µM (inactive)
N#Cc1nsnc1-c1nc(-c2nsnc2C#N)nc(-c2nsnc2C#N)n1	> 100 µM (inactive)	> 100 µM (inactive)	> 100 µM (inactive)	> 100 µM (inactive)	> 100 µM (inactive)	–	> 100 µM (inactive)	> 100 µM (inactive)	71.4 µM (inactive)	> 100 µM (inactive)	> 100 µM (inactive)	> 100 µM (inactive)	> 100 µM (inactive)	> 100 µM (inactive)	61.9 µM (inactive)	> 100 µM (inactive)	> 100 µM (inactive)	> 100 µM (inactive)	> 100 µM (inactive)	> 100 µM (inactive)
CCN(CC)CC(=O)O[C@]1(CC)C(=O)OCc2c1cc1n(c2=O)Cc2cc3ccccc3nc2-1	0.0285 µM (active)	0.0957 µM (active)	0.256 µM (active)	0.0307 µM (active)	0.0703 µM (active)	0.0237 µM (active)	0.0798 µM (active)	3.37 µM (inactive)	1.36 µM (inactive)	< 0.01 µM (active)	< 0.01 µM (active)	0.0413 µM (active)	< 0.01 µM (active)	0.054 µM (active)	< 0.0107 µM (active)	0.0583 µM (active)	< 0.01 µM (active)	< 0.0139 µM (active)	0.165 µM (active)	0.219 µM (active)
CCC(C#N)NCc1ccc(CNC(C#N)CC)cc1 (stereo not given)	> 100 µM (inactive)	> 100 µM (inactive)	> 100 µM (inactive)	> 100 µM (inactive)	> 100 µM (inactive)	> 100 µM (inactive)	> 100 µM (inactive)	> 100 µM (inactive)	> 100 µM (inactive)	> 100 µM (inactive)	> 100 µM (inactive)	> 100 µM (inactive)	> 100 µM (inactive)	> 100 µM (inactive)	> 100 µM (inactive)	> 100 µM (inactive)	86.5 µM (inactive)	> 100 µM (inactive)	–	> 100 µM (inactive)
S=C(NC/C(Br)=C/Br)Nc1cccc2ccccc12	27.6 µM (inactive)	34.5 µM (inactive)	28.9 µM (inactive)	24.2 µM (inactive)	34 µM (inactive)	34.2 µM (inactive)	22.5 µM (inactive)	19.4 µM (inactive)	40.6 µM (inactive)	19 µM (inactive)	28.9 µM (inactive)	33.3 µM (inactive)	–	23.1 µM (inactive)	38.8 µM (inactive)	33.5 µM (inactive)	24.2 µM (inactive)	25.5 µM (inactive)	15.4 µM (inactive)	28.9 µM (inactive)
CCOC(=O)N1CCNCCN(C(=O)OCC)CCNCC1	> 100 µM (inactive)	> 100 µM (inactive)	> 100 µM (inactive)	> 100 µM (inactive)	> 100 µM (inactive)	> 100 µM (inactive)	> 100 µM (inactive)	> 100 µM (inactive)	> 100 µM (inactive)	> 100 µM (inactive)	> 100 µM (inactive)	> 100 µM (inactive)	> 100 µM (inactive)	> 100 µM (inactive)	> 100 µM (inactive)	> 100 µM (inactive)	> 100 µM (inactive)	> 100 µM (inactive)	> 100 µM (inactive)	–
CC(=O)OCC1OC(Oc2cc(C)c(O)cc2C/C=C(\C)CC/C=C(\C)C[C@@H](C=C(C)C)OC(C)=O)C(O)C(OC(C)=O)C1OC(C)=O (stereo not given in full)	16.1 µM (inactive)	17.7 µM (inactive)	38.6 µM (inactive)	23.2 µM (inactive)	16.5 µM (inactive)	19.1 µM (inactive)	10 µM (inactive)	37.3 µM (inactive)	22.9 µM (inactive)	16.8 µM (inactive)	20 µM (inactive)	16.8 µM (inactive)	14.2 µM (inactive)	18.2 µM (inactive)	39.1 µM (inactive)	15.2 µM (inactive)	13.1 µM (inactive)	–	9.84 µM (inactive)	> 50 µM (inactive)
Cc1cc2nc(-c3c(F)cccc3F)n(Cc3c(F)cccc3F)c2cc1C	13.5 µM (inactive)	15.5 µM (inactive)	8.24 µM (inactive)	12.1 µM (inactive)	14.7 µM (inactive)	12.1 µM (inactive)	16.1 µM (inactive)	14 µM (inactive)	29.4 µM (inactive)	18.5 µM (inactive)	14.3 µM (inactive)	13.2 µM (inactive)	13.6 µM (inactive)	15.7 µM (inactive)	17.9 µM (inactive)	20.1 µM (inactive)	–	18.5 µM (inactive)	5.28 µM (inactive)	27.9 µM (inactive)
Cc1nc2cc3ccccc3cc2[nH]c1=O	70.5 µM (inactive)	> 100 µM (inactive)	0.805 µM (active)	> 100 µM (inactive)	> 100 µM (inactive)	> 100 µM (inactive)	> 100 µM (inactive)	72.3 µM (inactive)	80.2 µM (inactive)	77.3 µM (inactive)	–	> 100 µM (inactive)	61.1 µM (inactive)	> 100 µM (inactive)	44.9 µM (inactive)	19.8 µM (inactive)	36.3 µM (inactive)	53.2 µM (inactive)	–	> 100 µM (inactive)
COc1cc(S(=O)(=O)Nc2nc(-c3ccc(N4C(=O)/C(=C/c5ccccc5[N+](=O)[O-])N=C4c4ccccc4)cc3)cs2)ccc1Cl	> 100 µM (inactive)	> 100 µM (inactive)	–	74 µM (inactive)	67.1 µM (inactive)	> 100 µM (inactive)	> 100 µM (inactive)	19.9 µM (inactive)	> 100 µM (inactive)	> 100 µM (inactive)	> 100 µM (inactive)	20 µM (inactive)	> 100 µM (inactive)	47 µM (inactive)	> 100 µM (inactive)	> 100 µM (inactive)	27 µM (inactive)	> 100 µM (inactive)	–	> 100 µM (inactive)
Cn1c(=O)n(-c2c3ccccc3c(Cl)c3ccccc23)n(C(C)(C)C)c1=O	49.5 µM (inactive)	> 100 µM (inactive)	> 100 µM (inactive)	> 100 µM (inactive)	> 100 µM (inactive)	> 100 µM (inactive)	> 100 µM (inactive)	97.1 µM (inactive)	> 100 µM (inactive)	> 100 µM (inactive)	> 100 µM (inactive)	> 100 µM (inactive)	> 100 µM (inactive)	> 100 µM (inactive)	48.8 µM (inactive)	> 100 µM (inactive)	> 100 µM (inactive)	43.6 µM (inactive)	–	> 100 µM (inactive)
